Laboratory results taken from US7071205B2 (Ligand Pharmaceuticals Incorporated, priority 2002, dated 2006).
Where two headings read alike, the source gives them in different places.

What was measured:
hPR-A = target: T1, hPR-A (Homo sapiens, UniProt P06401); experiment: Receptor competitive binding assay; details: hPR-A; read-out: PR Binding Ki
T1 sequence (P06401 1-769 isoform P06401-2): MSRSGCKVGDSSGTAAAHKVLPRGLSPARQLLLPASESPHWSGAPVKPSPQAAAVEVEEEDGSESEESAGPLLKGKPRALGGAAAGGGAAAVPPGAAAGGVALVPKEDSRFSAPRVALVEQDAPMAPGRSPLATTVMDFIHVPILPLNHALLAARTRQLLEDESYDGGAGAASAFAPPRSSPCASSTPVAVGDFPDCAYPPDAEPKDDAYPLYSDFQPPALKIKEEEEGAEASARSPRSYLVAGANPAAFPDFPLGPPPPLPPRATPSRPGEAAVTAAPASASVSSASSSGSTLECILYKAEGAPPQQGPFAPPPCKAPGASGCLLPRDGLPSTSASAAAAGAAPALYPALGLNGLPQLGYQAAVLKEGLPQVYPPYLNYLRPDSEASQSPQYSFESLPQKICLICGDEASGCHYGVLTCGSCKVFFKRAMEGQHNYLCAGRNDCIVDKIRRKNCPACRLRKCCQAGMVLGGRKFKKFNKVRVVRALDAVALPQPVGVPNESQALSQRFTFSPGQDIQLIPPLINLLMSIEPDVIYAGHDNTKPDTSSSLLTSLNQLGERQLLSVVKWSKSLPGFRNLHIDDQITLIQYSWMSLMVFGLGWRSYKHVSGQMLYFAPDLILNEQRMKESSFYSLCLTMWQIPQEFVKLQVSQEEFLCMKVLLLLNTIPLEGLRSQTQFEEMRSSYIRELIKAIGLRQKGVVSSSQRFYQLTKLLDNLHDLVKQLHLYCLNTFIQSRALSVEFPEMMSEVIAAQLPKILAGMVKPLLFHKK

hPR [1] = target: T2, hPR (Homo sapiens, UniProt P06401); experiment: Cotransfection assay, PR agonist activity in CV-1 cells; type: cell-based; details: for EC50: agonist potency EC50, read-out: PR Agonist CV-1 Cells Potency
T2 sequence (P06401 1-933): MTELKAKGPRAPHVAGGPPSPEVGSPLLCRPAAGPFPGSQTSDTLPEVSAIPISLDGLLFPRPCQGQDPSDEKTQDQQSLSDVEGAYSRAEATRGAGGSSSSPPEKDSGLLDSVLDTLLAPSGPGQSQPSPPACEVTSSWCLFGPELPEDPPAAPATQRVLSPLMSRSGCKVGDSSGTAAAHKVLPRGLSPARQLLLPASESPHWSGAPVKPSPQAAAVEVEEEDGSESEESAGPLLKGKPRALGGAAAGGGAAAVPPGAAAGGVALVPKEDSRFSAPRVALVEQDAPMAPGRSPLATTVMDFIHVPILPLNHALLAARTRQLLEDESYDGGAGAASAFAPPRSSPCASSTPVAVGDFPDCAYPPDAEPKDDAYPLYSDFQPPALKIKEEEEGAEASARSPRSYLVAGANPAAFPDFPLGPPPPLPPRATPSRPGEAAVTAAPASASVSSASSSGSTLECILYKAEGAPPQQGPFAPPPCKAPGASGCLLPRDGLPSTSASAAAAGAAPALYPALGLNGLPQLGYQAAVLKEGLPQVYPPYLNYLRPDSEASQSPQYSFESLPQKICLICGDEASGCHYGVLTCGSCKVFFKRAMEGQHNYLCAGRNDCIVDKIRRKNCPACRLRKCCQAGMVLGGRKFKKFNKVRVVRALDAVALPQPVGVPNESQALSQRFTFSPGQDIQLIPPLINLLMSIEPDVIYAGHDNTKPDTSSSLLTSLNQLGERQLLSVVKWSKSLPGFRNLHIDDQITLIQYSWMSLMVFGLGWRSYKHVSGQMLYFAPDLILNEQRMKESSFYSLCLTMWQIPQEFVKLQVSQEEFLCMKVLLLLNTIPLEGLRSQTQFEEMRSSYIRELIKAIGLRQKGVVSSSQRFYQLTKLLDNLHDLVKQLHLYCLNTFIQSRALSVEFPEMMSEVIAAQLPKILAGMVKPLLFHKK
Description: (§1) All the cotransfection experiments were carried out in 96-well plates by automation (Beckman Biomomek automated workstation).

hPR [2] = target: T2, hPR; experiment: Cotransfection assay, PR antagonist activity in CV-1 cells; type: cell-based; details: for IC50: antagonist potency IC50; for PR Antagonist CV-1 Cells Efficacy (%): percent maximal response relative to reference antagonist
Description: as §1

immature rabbits = experiment: McPhail (Clauberg) assay of progestational activity; type: in vivo, rabbit; details: minimum active dose; estradiol-primed immature rabbits, uterine glandular changes
Description: The in vivo activity of selected hPR modulator compounds of the present invention were evaluated utilizing the McPhail assay, according to the following illustrative Examples. The Clauberg or McPhail assay is a classic assay utilizing rabbits to measure progestational activity. […] This is followed by treatment with a progestin, which causes a large change in the glandular content of the uterus. It is this change in the glandular component, which is a measure of the progestational activity of a progestin. The measurement of these glandular changes are carried out histologically using stained sections of the uterus. The in vivo potency of the progestins is presented as the minimum active dose (MAD) in mg/kg.

[3] = CV-1 cells, MTV-LUC reporter, percent maximal response relative to progesterone

CC1=CC(C2Oc3ccc(F)cc3-c3ccc4c(c32)C(C)=CC(C)(C)N4)CCC1 (racemic) [Compound 25, (±)-(5l,1′u)-5-(3-methyl-2-cyclohexenyl)-9-fluoro-1,2-dihydro-2,2,4-trimethyl-5H-chromeno[3,4-f]quinoline]
Ki (hPR-A): 6.3 nM
PR Agonist CV-1 Cells Efficacy (%) (hPR [1]; [3]): 86%
EC50 (hPR [1]; CV-1 cells): 9.7 nM
IC50 (hPR [2]): > 10000 nM
PR Antagonist CV-1 Cells Efficacy (%) (hPR [2]): na (na = not active (i.e. efficacy of <20 and potency of >10,000))

CC1=C[C@H]([C@H]2Oc3c(F)cc(F)cc3-c3ccc4c(c32)C(C)=CC(C)(C)N4)CCC1 (racemic) [Compound 34, (±)-(5l,1′l)-5-(3-methyl-2-cyclohexenyl)-7,9-difluoro-1,2-dihydro-2,2,4-trimethyl-5H-chromeno[3,4-f]quinoline]
MAD (immature rabbits): 0.25 mg/kg
PR Agonist CV-1 Cells Efficacy (%) (hPR [1]; [3]): 164%
PR Antagonist CV-1 Cells Efficacy (%) (hPR [2]): na (na = not active (i.e. efficacy of <20 and potency of >10,000))

CC1=C[C@@H]([C@H]2Oc3c(F)cc(F)cc3-c3ccc4c(c32)C(C)=CC(C)(C)N4)CCC1 (racemic) [Compound 35, (±)-(5l,1′u)-5-(3-methyl-2-cyclohexenyl)-7,9-difluoro-1,2-dihydro-2,2,4-trimethyl-5H-chromeno[3,4-f]quinoline]
PR Agonist CV-1 Cells Efficacy (%) (hPR [1]; [3]): 100%
PR Antagonist CV-1 Cells Efficacy (%) (hPR [2]): na (na = not active (i.e. efficacy of <20 and potency of >10,000))

CC1=C[C@H]([C@H]2Oc3ccc(F)cc3-c3ccc4c(c32)C=CC(C)(C)N4)CCC1 (racemic) [Compound 41, (±)-(5l,1′l)-5-(3-methyl-2-cyclohexenyl)-9-fluoro-1,2-dihydro-2,2-dimethyl-5H-chromeno[3,4-f]quinoline]
Ki (hPR-A): 11 nM
PR Agonist CV-1 Cells Efficacy (%) (hPR [1]; [3]): 122%
EC50 (hPR [1]; CV-1 cells): 10 nM
IC50 (hPR [2]): > 10000 nM
PR Antagonist CV-1 Cells Efficacy (%) (hPR [2]): na (na = not active (i.e. efficacy of <20 and potency of >10,000))

CC1=C[C@@H]([C@H]2Oc3ccc(F)cc3-c3ccc4c(c32)C=CC(C)(C)N4)CCC1 (racemic) [Compound 42, (±)-(5l,1′u)-5-(3-methyl-2-cyclohexenyl)-9-fluoro-1,2-dihydro-2,2-dimethyl-5H-chromeno[3,4-f]quinoline]
Ki (hPR-A): 143 nM
PR Agonist CV-1 Cells Efficacy (%) (hPR [1]; [3]): 27%
EC50 (hPR [1]; CV-1 cells): 38 nM
IC50 (hPR [2]): > 10000 nM
PR Antagonist CV-1 Cells Efficacy (%) (hPR [2]): na (na = not active (i.e. efficacy of <20 and potency of >10,000))

CC1=CC(C2Oc3ccc(F)cc3-c3ccc4c(c32)C(C)=CC(C)(C)N4)CC1 (racemic) [Compound 44, (±)-(5l,1′l)-5-(3-methyl-2-cyclopentenyl)-9-fluoro-1,2-dihydro-2,2,4-trimethyl-5H-chromeno[3,4-f]quinoline]
Ki (hPR-A): 7.7 nM
PR Agonist CV-1 Cells Efficacy (%) (hPR [1]; [3]): 123%
EC50 (hPR [1]; CV-1 cells): 6.7 nM
IC50 (hPR [2]): > 10000 nM
PR Antagonist CV-1 Cells Efficacy (%) (hPR [2]): na (na = not active (i.e. efficacy of <20 and potency of >10,000))

CC1=CC(C2Oc3ccc(F)cc3-c3ccc4c(c32)C(C)=CC(C)(C)N4)CC1 (racemic) [Compound 45, (±)-(5l,1′u)-5-(3-methyl-2-cyclopentenyl)-9-fluoro-1,2-dihydro-2,2,4-trimethyl-5H-chromeno[3,4-f]quinoline]
Ki (hPR-A): 17 nM
PR Agonist CV-1 Cells Efficacy (%) (hPR [1]; [3]): 94%
EC50 (hPR [1]; CV-1 cells): 9.1 nM
IC50 (hPR [2]): > 10000 nM
PR Antagonist CV-1 Cells Efficacy (%) (hPR [2]): na (na = not active (i.e. efficacy of <20 and potency of >10,000))

COc1cc2c(cc1F)-c1ccc3c(c1C(C1C=C(C)CCC1)O2)C(C)=CC(C)(C)N3 (racemic) [Compound 64, (±)-(5l,1′l)-5-(3-methyl-2-cyclohexenyl)-9-fluoro-1,2-dihydro-8-methoxy-2,2,4-trimethyl-5H-chromeno[3,4-f]quinoline]
Ki (hPR-A): 485 nM
PR Agonist CV-1 Cells Efficacy (%) (hPR [1]; [3]): na (na = not active (i.e. efficacy of <20 and potency of >10,000))
EC50 (hPR [1]; CV-1 cells): > 10000 nM
IC50 (hPR [2]): 1900 nM
PR Antagonist CV-1 Cells Efficacy (%) (hPR [2]): 80%

COc1cc2c(cc1F)-c1ccc3c(c1C(C1C=C(C)CCC1)O2)C(C)=CC(C)(C)N3 (racemic) [Compound 65, (±)-(5l,1′u)-5-(3-methyl-2-cyclohexenyl)-9-fluoro-1,2-dihydro-8-methoxy-2,2,4-trimethyl-5H-chromeno[3,4-f]quinoline]
Ki (hPR-A): 329 nM
PR Agonist CV-1 Cells Efficacy (%) (hPR [1]; [3]): na (na = not active (i.e. efficacy of <20 and potency of >10,000))
EC50 (hPR [1]; CV-1 cells): > 10000 nM
IC50 (hPR [2]): 650 nM
PR Antagonist CV-1 Cells Efficacy (%) (hPR [2]): 59%

CC1=CC(C2Oc3ccc(F)cc3-c3ccc4c(c32)C(C)=CC(C)(C)N4)CCC1 (single isomer, unassigned; (+)) [Compound 27, (+)-(5l,1′l)-5-(3-methyl-2-cyclohexenyl)-9-fluoro-1,2-dihydro-2,2,4-trimethyl-5H-chromeno[3,4-f]quinoline]
Ki (hPR-A): 241 nM
PR Agonist CV-1 Cells Efficacy (%) (hPR [1]; [3]): 68%
EC50 (hPR [1]; CV-1 cells): 43 nM
IC50 (hPR [2]): > 10000 nM
PR Antagonist CV-1 Cells Efficacy (%) (hPR [2]): na (na = not active (i.e. efficacy of <20 and potency of >10,000))

CC1=CC(C2Oc3c(F)cc(F)cc3-c3ccc4c(c32)C(C)=CC(C)(C)N4)CCC1 (single isomer, unassigned; (+)) [Compound 37, (+)-(5l,1′l)-5-(3-methyl-2-cyclohexenyl)-7,9-difluoro-1,2-dihydro-2,2,4-trimethyl-5H-chromeno[3,4-f]quinoline]
PR Agonist CV-1 Cells Efficacy (%) (hPR [1]; [3]): na (na = not active (i.e. efficacy of <20 and potency of >10,000))
PR Antagonist CV-1 Cells Efficacy (%) (hPR [2]): 50%

CC1=CC(C2Oc3ccc(F)cc3-c3ccc4c(c32)C(C)=CC(C)(C)N4)CCC1 (single isomer, unassigned; (-)) [Compound 28, (−)-(5l,1′l)-5-(3-methyl-2-cyclohexenyl)-9-fluoro-1,2-dihydro-2,2,4-trimethyl-5H-chromeno[3,4-f]quinoline]
Ki (hPR-A): 2 nM
PR Agonist CV-1 Cells Efficacy (%) (hPR [1]; [3]): 171%
EC50 (hPR [1]; CV-1 cells): 0.9 nM
IC50 (hPR [2]): > 10000 nM
PR Antagonist CV-1 Cells Efficacy (%) (hPR [2]): na (na = not active (i.e. efficacy of <20 and potency of >10,000))

CC(=O)[C@H]1CC[C@H]2[C@@H]3CCC4=CC(=O)CC[C@]4(C)[C@H]3CC[C@]12C [Prog, progesterone, reference compound]
PR Agonist CV-1 Cells Efficacy (%) (hPR [1]; [3]): 100%

CC#C[C@]1(O)CC[C@H]2[C@@H]3CCC4=CC(=O)CCC4=C3[C@@H](c3ccc(N(C)C)cc3)C[C@@]21C [RU486, mifepristone, reference compound]
PR Agonist CV-1 Cells Efficacy (%) (hPR [1]): na (key: na = not active (i.e. efficacy of <20 and potency of >10,000))

CN(C)c1ccc([C@H]2C[C@]3(C)[C@@H](CC[C@]3(O)CCCO)[C@@H]3CCC4=CC(=O)CCC4=C32)cc1 [ZK299, reference compound]
PR Antagonist CV-1 Cells Efficacy (%) (hPR [2]): 99%
